Results as given in patent US20100292085A1, “Methods and compositions for characterization of HSD1 inhibitors” (priority 2005, published 2010).

Assays:
[1] = target: T1, HSD1 (Homo sapiens, UniProt P28845); test: Direct measurement of HSD1 activity: 3H-cortisone conversion to cortisol by HPLC; format: cell-based; design: expressed in transfected cells
Protocol: Oxidoreductase Method: [1,2-^3H]-cortisone (48.7 Ci/mmol) was added to a final concentration of 20 nM to HepG2/HSD1 (2×10^6 cells/well in 6-well plates) and incubated for 1.5, 3, 6 and 22 hrs at 37° C. in culture medium (Dulbecco's Modified Eagle Medium with high glucose containing 2 mM L-glutamine, 10% fetal bovine serum, 100 U/ml penicillin, 100 μg/ml Streptomycin, 10 μM sodium pyruvate, 100 μM non-essential amino acids, 0.003 N NaOH and 0.8 mg/ml Geneticin). The samples (100 μl aliquots) were then extracted with 300 μl ethyl acetate and the upper, organic phases were dried. The dried organic extracts were then resuspended either in 100 μl DMSO for analysis by reverse-phase HPLC (buffer A=10% methanol/90% water; buffer B=90% methanol/10% water using a gradient from 20-45% Buffer B; YMC Combiscreen Pro C18 50 mm×4.6 mm column; flow rate 2.5 mL/min).
HSD1 activity was measured by spiking the incubation medium with ^3H-cortisone. After 21 hrs post compound treatment, conversion of the cortisone to cortisol was assessed by HPLC analysis.

[2] = system: HepG2/HSD1 cells; test: Off-target effects by microarray: number of genes changed, no cortisone; format: cell-based, human; conditions: number of genes changed vs forskolin alone
Protocol: (§1) Total RNA isolated from cultured cell samples was used to make fluorescently labeled cRNA that was hybridized to DNA oligonucleotide microarrays as described previously (Hughes et al., supra., Marton et al., 1998, Nat. Med. 4:1293-301). Briefly, 4 μg of total RNA from each cell culture sample was used to synthesize dsDNA through RT. cRNA was produced by in vitro transcription and labeled postsynthetically with Cy3 or Cy5. Two populations oflabeled cRNA, a control population from vehicle/forskolin treated cells and an experimental population, i.e., cortisone/forskolin plus vehicle or plus HSD1 test compound, were compared with each other by competitive hybridization to microarrays. Two hybridizations were done with each cRNA sample pair using a fluorescent dye reversal strategy.
The human microarrays used in this study contained 23,653 oligonucleotide probes corresponding to individual genes or expressed sequence tags. […]
(§2) After hybridization, arrays were scanned and fluorescence intensities for each probe were recorded. […] For each gene sequence present on the microarrays, statistical significance of differential gene expression was determined by calculating P values according to the following equation: […]
HSD1 compounds were evaluated using microarray gene expression measurements obtained from HepG2/HSD1 cells under conditions where the cells were not treated with cortisone. […]

[3] = system: off-target signature genes (SCD, DHCR7, ACLY, FBXO9, HEY1); test: Off-target signature genes measured by RT-PCR (TAQman) in HepG2/HSD1 cells; format: cell-based, human
Protocol: HepG2 cells stably transfected with human HSD1, as previously described in Example 1, were plated in either 96 well or 24 well tissue culture plates. Cells were plated at a density of 6.25×10^5 cells/well on 24 well plates in 500 μl DMEM culture medium prepared as previously described. For the 96 well plates, the cells were plated at a density of 1×10^5 cells per well in 100 μl culture medium. The cells were incubated at 37° C. in a 5% CO2 atmosphere. After 24 hours, the culture medium was removed and the cells were pre-incubated with, either 250 μl (24 well plate) or 50 μl (96 well plate), Culture Medium containing 2× concentration of HSD1 inhibitor (14 μM) or vehicle for 20 min at 37° C. in a 5% CO2 atmosphere. Culture Medium (either 250 μl or 50 μl) containing 1000 nM cortisone (500 nM final concentration) or vehicle, and 20 μM forskolin (10 μM final concentration), was next added to the cells. The cells were further incubated for 20 hrs at 37° C. in a 5% CO2 atmosphere. […]
Oligonucleotide probes were labeled with the 6-FAM fluorophore at the 5′ end (FAM) and a non-fluorescent quencher at the 3′ end (NFQ). […] The levels of mRNA were normalized to the amount of 18S RNA detected in each sample using the Eukaryotic 18S rRNA Endogenous Control from Applied Biosystems. Levels of the target mRNAs in treated cells were calculated relative to the untreated cells.

[4] = target: T1, HSD1; test: In vivo efficacy of HSD1 inhibitor; design: host or cells: in vivo
[5] = target: T1, HSD1; test: Cortisone signature genes measured by RT-PCR (TAQman) in HepG2/HSD1 cells; format: cell-based; design: expressed in transfected cells
Protocol: HepG2 cells stably transfected with human HSD1, as previously described in Example 1, were plated in either 96 well or 24 well tissue culture plates. Cells were plated at a density of 6.25×10^5 cells/well on 24 well plates in 500 μl DMEM culture medium prepared as previously described. For the 96 well plates, the cells were plated at a density of 1×10^5 cells per well in 100 μl culture medium. The cells were incubated at 37° C. in a 5% CO2 atmosphere. After 24 hours, the culture medium was removed and the cells were pre-incubated with, either 250 μl (24 well plate) or 50 μl (96 well plate), Culture Medium containing 2× concentration of HSD1 inhibitor (14 μM) or vehicle for 20 min at 37° C. in a 5% CO2 atmosphere. Culture Medium (either 250 μl or 50 μl) containing 1000 nM cortisone (500 nM final concentration) or vehicle, and 20 μM forskolin (10 μM final concentration), was next added to the cells. The cells were further incubated for 20 hrs at 37° C. in a 5% CO2 atmosphere. All conditions were run in duplicates.
HepG2/HSD1 cells were lysed using Trizol reagent (Life Technologies, Grand Island, N.Y.). Total RNA was isolated from HepG2/HSD1 lysate using the RNeasy 96-Kit (Qiagen Inc., Valencia, Calif.) following the manufacturer's instructions, including the optional on-column removal of contaminating DNA step by RNase-free DNase I treatment. The RNA was reverse-transcribed to single stranded cDNA using random hexamer primers with TAQman reverse transcription reagents (Applied Biosystems, Foster City, Calif.).
The sequences of the TAQman primers and probes used to detect the target cDNAs were synthesized by Qiagen Operon (Alameda, Calif.) and are shown in Tables 8 and 9.
Oligonucleotide probes were labeled with the 6-FAM fluorophore at the 5′ end (FAM) and a non-fluorescent quencher at the 3′ end (NFQ). Real-time PCR was performed on human HepG2/HSD1 cDNA using the TaqMan Universal PCR Master Mix (Applied Biosystems, Foster City, Calif.) and appropriate primer/probe sets on an ABI Prism 7900HT Sequence Detection System (Applied Biosystems, Foster City, Calif.) in the 384-well format according to manufacturer's instructions. The levels of mRNA were normalized to the amount of 18S RNA detected in each sample using the Eukaryotic 18S rRNA Endogenous Control from Applied Biosystems. Levels of the target mRNAs in treated cells were calculated relative to the untreated cells.

[6] = target: T1, HSD1; test: HSD1 signature reversal activity: microarray of cortisone signature genes in HepG2/HSD1 cells; format: cell-based; design: expressed in transfected cells; conditions: slope of linear regression vs cortisone treatment alone (1.0 = no inhibition), Table 2 genes, 500 nM cortisone, 10 μM forskolin, inhibitor added as 2× concentration (14 μM), 20 hrs
Protocol: HepG2 human hepatoma cells stably transfected with human 11βHSD1 (HepG2/HSD1 cells) were plated at 2×10^6 cells per well on 6-well plates in 1 ml Culture Medium (DMEM with 2 mM L-Glutamine, 10% charcoal-dextran-treated FBS, 100 U/ml Penicillin, 100 μg/ml streptomycin, 10 μM sodium pyruvate, 100 μM non-essential amino acids, 0.003 N NaOH) at 37° C./5% CO2. After 24 hours, the Culture Medium was replaced with 500 μl Culture Medium containing 1000 nM cortisone (500 nM final concentration) and 20 μM forskolin (10 μM final concentration). The cells were incubated for 20 hrs at 37° C./5% CO2. Samples were run in triplicates. […]
as §2
Gene expression changes in the cortisone signature genes were analyzed to further assess the degree to which HSD1-agents cause a reversal in the magnitude of the cortisone signature due to the degree of inhibition of HSD1 activity. Gene expression levels of the cortisone signature genes were measured in cortisone treated HepG2/HSD1 cells and HepG2/HSD1 cells treated with an HSD1-agent affecting HSD1 activity. […]

[7] = system: SCD; test: Off-target activity by SCD expression level (microarray); format: cell-based, human; conditions: HepG2/HSD1 cells, 10 μM forskolin, no cortisone, vs forskolin alone; microarray probe
Protocol: as §1
Each HSD1 inhibitor compound treated sample was compared to a forskolin alone cell sample. The HepG2/HSD1 cells used in these experiments were not contacted with cortisone.

[8] = system: HepG2/HSD1 cells; test: Identification of the off-target response signature by microarray (Table 6); format: cell-based, human
From the text: This off-target gene signature was not detected in other active HSD1 inhibitor compounds with in vivo efficacy. Monitoring for the off-target signature identified by 3-(2-chlorophenyl)-4-methyl-5-(4-pentylbicyclo[2.2.2]oct-1-yl)-4H-1,2,4-triazole in the HepG2 cells over-expressing HSD1 can improve characterization and selection of candidate HSD1 compounds prior to in vivo efficacy testing.
as §1, with “strategy. […]” for “strategy.”

[9] = RT-PCR, 500 nM cortisone + 10 μM forskolin, 20 hrs, inhibitor added as 2× concentration (14 μM)

T1 sequence (P28845 whole entry): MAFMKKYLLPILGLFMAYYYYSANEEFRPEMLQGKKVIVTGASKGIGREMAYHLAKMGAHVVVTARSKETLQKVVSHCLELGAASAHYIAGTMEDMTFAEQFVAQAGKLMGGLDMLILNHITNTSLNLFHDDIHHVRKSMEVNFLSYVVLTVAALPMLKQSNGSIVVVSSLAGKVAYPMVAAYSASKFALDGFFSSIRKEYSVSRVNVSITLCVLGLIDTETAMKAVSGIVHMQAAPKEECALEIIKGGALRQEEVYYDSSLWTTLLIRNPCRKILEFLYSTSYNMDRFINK

SMILES: CCCCCC12CCC(c3nnc(-c4ccccc4Cl)n3C)(CC1)CC2 [3-(2-chlorophenyl)-4-methyl-5-(4-pentylbicyclo[2.2.2]oct-1-yl)-4H-1,2,4-triazole]
- Percent Conversion to Cortisol ([1]; 3H-cortisone spiked medium, 21 hrs post compound treatment, cortisone/forskolin, HPLC): 2%
- Percent Conversion to Cortisol normalized to cortisone/forskolin value ([1]; value in square brackets, cortisone/forskolin alone = 1.0): 0.05
- off-target activity (in words, from Table 5 microarray data) [2]: high levels of off-target activity
- Average of five genes (off-target signature, Fold Change Relative to Vehicle Alone) [3]: 1.7 Fold Change
- efficacy in vivo (in words) [4]: failed to achieve significant efficacy in vivo
- G6PC Gene Transcript (Fold Change Relative to Vehicle Alone) [5, 9]: 1.0 Fold Change
- Homer-2 Gene Transcript (Fold Change Relative to Vehicle Alone) [5, 9]: 1.5 Fold Change
- LIPG Gene Transcript (Fold Change Relative to Vehicle Alone) [5, 9]: 2.7 Fold Change
- PGC Gene Transcript (Fold Change Relative to Vehicle Alone) [5, 9]: 0.7 Fold Change
- TAT Gene Transcript (Fold Change Relative to Vehicle Alone) [5, 9]: 1.2 Fold Change
- Average of five genes (cortisone signature, Fold Change Relative to Vehicle Alone) ([5]; average of Homer-2, G6PC, PGC, TAT, LIPG): 1.4 Fold Change
- HSD1 Signature Reversal Activity Values [6]: 0.03
- Log ratio of SCD gene expression [7]: 0.45
- off-target signature (Table 6) in HepG2 cell line over-expressing HSD1 (in words) ([8]; independent of cortisone treatment): exhibited off-target activity
- off-target response signature, number of gene markers ([8]; p-value<0.01, no fold change cut-off, common to three replicate studies, compound + forskolin): 330
